According to patent US20230167132A1, “FORMS AND COMPOSITIONS OF INHIBITORS OF PLASMA KALLIKREIN” (Takeda Pharmaceutical Company Limited, priority 2020, published 2023):
Several values for one entry are separate records, joined by “and”; a condition that tells them apart may be missing. Equal values may be shown once.

Tests used:
Type in all cases: physicochemical
[1] = Storage for one week at 40° C./75% RH and 25° C./97% RH, XRPD; conditions: for stability under storage: summary of scaled-up solid forms, conditions not restated
[2] = Intrinsic Dissolution Rate (IDR), Sirius inForm; conditions: for IDR Sector 1 average (pH 2.0) / IDR Sector 1 pH 2.0: pH 2.0, 37° C.; for IDR Sector 1 pH 2.0: individual runs; for sector 1 IDR compared to free base form Compound 1 Form 1 / other forms: pH 2.0, comparison in words; for XRPD Analysis Post Dissolution: solid form of disc after IDR analysis
Description: About 40 mg of the sample was compressed in a 6 mm disc recess, under 100 kg for 2 minutes, with greaseproof paper on the compression base, to form nondisintegrating discs. The discs were then plugged with a bung so that only one surface was exposed to the media during analysis and transferred to the Sirius inForm dissolution apparatus. Analysis was performed at 37° C. in 40 mL media (36 mL ISA water, 4 mL 0.1 M Acetate Phosphate Buffer). Dissolution data were collected over 4 pH sectors (pH 2.0, 5.5, 6.5, and 7.4) for a total of 2 hours—30 minutes per sector, with UV spectra collected every 30 seconds. A stir speed of 225 rpm was used with a 10 mm path length probe. The IDR was calculated based on the surface area of the 3/6/8 mm disc recess used (28.3 mm2 surface area). XRPD analysis was performed on all samples, both after compression of the material into the disc recess, and post dissolution analysis to observe any change in form. XRPD diffractograms were collected on the Bruker C2.

[3] = Gravimetric vapour sorption (GVS) analysis; conditions: for GVS mass increase: between 0 and 90% RH; for XRPD post GVS analysis: change of solid form after GVS; for GVS hygroscopicity: classification in words
[4] = one week, material isolated from salt/cocrystal screening experiments
[5] = one week (7 days), scaled-up / characterised material
[6] = one week (7 days), scaled-up / characterised material, listed as Form 2

| SMILES | Storage 40° C./75% RH, XRPD [1, 4] | stability under storage [1] | IDR Sector 1 average (pH 2.0) [2] | GVS mass increase [3] | XRPD post GVS analysis [3] | Storage 25° C./97% RH, XRPD [1, 5] | Storage 40° C./75% RH, XRPD [1, 5] | also measured |
| --- | --- | --- | --- | --- | --- | --- | --- | --- |
| CS(=O)(=O)O.O=C(NCc1ncn2ccc(Cl)c(F)c12)c1cn(Cc2cn3cc(C4CC4)ccc3n2)nn1 [Mesylate salt—Pattern 1] | changes to its XRPD pattern with peaks corresponding to Compound 1 Form 1 being present |  |  |  |  |  |  |  |
| O=C(NCc1ncn2ccc(Cl)c(F)c12)c1cn(Cc2cn3cc(C4CC4)ccc3n2)nn1 [Compound 6] |  | stable under storage |  |  |  |  |  |  |
| CS(=O)(=O)O.O=C(NCc1ncn2ccc(Cl)c(F)c12)c1cn(Cc2cn3cc(C4CC4)ccc3n2)nn1 [Mesylate salt—Pattern 2] | unchanged |  |  |  |  |  |  |  |
| O=C(NCc1ncn2ccc(Cl)c(F)c12)c1cn(Cc2cn3cc(C4CC4)ccc3n2)nn1 [Compound 11] | unchanged by XRPD |  |  |  |  |  |  |  |
| O=C(NCc1ncn2ccc(Cl)c(F)c12)c1cn(Cc2cn3cc(C4CC4)ccc3n2)nn1.O=C(O)C[C@H](O)C(=O)O [Compound 3] | Slight changes | stable under storage | 1791 μg/min/cm^2 | 0.22% | no observed change | unchanged by XRPD | unchanged by XRPD | IDR Sector 1 pH 2.0 ([2]; listed as L-malate Pattern 1): 1569 μg/min/cm^2 and 2013 μg/min/cm^2; sector 1 IDR compared to free base form Compound 1 Form 1 / other forms ([2]; listed as Compound 3 Form 1): highest IDR; sector 1 IDR compared to free base form Compound 1 Form 1 / other forms ([2]; listed as Compound 3 Pattern 1): increased sector 1 IDR; XRPD Analysis Post Dissolution ([2]; listed as Compound 3 Pattern 1): additional peaks observed in XRPD; XRPD Analysis Post Dissolution ([2]; listed as L-malate Pattern 1): Additional peaks observed; GVS hygroscopicity ([3]; listed as Compound 3 Pattern 1): slightly hygroscopic; GVS hygroscopicity ([3]; listed as L-malate): reduced hygroscopicity |
| O=C(NCc1ncn2ccc(Cl)c(F)c12)c1cn(Cc2cn3cc(C4CC4)ccc3n2)nn1 [Compound 1 Form 3, N-((7-chloro-8-fluoroimidazo[1,5-a]pyridin-1-yl)methyl)-1-((6-cyclopropylimidazo[1,2-a]pyridin-2-yl)methyl)-1H-1,2,3-triazole-4-carboxamide] |  |  |  | 0.5% | between 0 and 90% RH. Unchanged by XRPD post | Unchanged by XRPD | Unchanged by XRPD | GVS hygroscopicity [3]: Slightly hygroscopic |
| O=C(NCc1ncn2ccc(Cl)c(F)c12)c1cn(Cc2cn3cc(C4CC4)ccc3n2)nn1 [Amorphous form of Compound 1, N-((7-chloro-8-fluoroimidazo[1,5-a]pyridin-1-yl)methyl)-1-((6-cyclopropylimidazo[1,2-a]pyridin-2-yl)methyl)-1H-1,2,3-triazole-4-carboxamide] |  |  |  |  | convert to Form 1 | convert to Form 1 | convert to Form 1 | form conversion upon heating ([1]; heating to 150° C.): convert to Form 1 |
| O=C(NCc1ncn2ccc(Cl)c(F)c12)c1cn(Cc2cn3cc(C4CC4)ccc3n2)nn1.O=P(O)(O)O [Compound 5] | unchanged | stable under storage | 404.1 μg/min/cm^2 | 1.2% | no observed change | unchanged by XRPD | unchanged by XRPD | IDR Sector 1 pH 2.0 ([2]; listed as Phosphate Pattern 1): 364.7 μg/min/cm^2 and 443.4 μg/min/cm^2; sector 1 IDR compared to free base form Compound 1 Form 1 / other forms [2]: increased sector 1 IDR; XRPD Analysis Post Dissolution ([2]; listed as Phosphate Pattern 1): Partial conversion to Compound 1; GVS hygroscopicity ([3]; listed as Compound 5 Pattern 1): slightly hygroscopic; GVS hygroscopicity ([3]; listed as phosphate): reduced hygroscopicity |
| O=C(NCc1ncn2ccc(Cl)c(F)c12)c1cn(Cc2cn3cc(C4CC4)ccc3n2)nn1 [Compound 1 Form 2, N-((7-chloro-8-fluoroimidazo[1,5-a]pyridin-1-yl)methyl)-1-((6-cyclopropylimidazo[1,2-a]pyridin-2-yl)methyl)-1H-1,2,3-triazole-4-carboxamide] |  |  | 290.8 μg/min/cm^2 |  | decrease. Mixture of Freebase Patterns 2 & 3 | Mixture of Compound 1 - Form 1, Compound 1 - | Free base, Compound 1 - Form 1 | XRPD Analysis Post Dissolution [2]: Conversion to Compound 1 - Form 1; GVS increase in mass ([3]; between 80 and 90% RH): 4%; XRPD post GVS analysis ([3]; listed as Form 2): convert to Form 1; GVS hygroscopicity [3]: Hygroscopic; Storage 25° C./97% RH, XRPD [1, 6]: Peaks corresponding to a suspected hydrated phase; Storage 40° C./75% RH, XRPD [1, 6]: convert to Form 1 |
| O=C(NCc1ncn2ccc(Cl)c(F)c12)c1cn(Cc2cn3cc(C4CC4)ccc3n2)nn1.O=C(O)/C=C/C(=O)O [Compound 9] | unchanged | stable under storage | 78.3 μg/min/cm^2 | 0.6% | no observed change | unchanged by XRPD | unchanged by XRPD | IDR Sector 1 pH 2.0 ([2]; listed as Fumarate Pattern 1): 76.8 μg/min/cm^2 and 79.8 μg/min/cm^2; XRPD Analysis Post Dissolution ([2]; listed as Compound 9 Pattern 1): Additional peaks observed in XRPD; XRPD Analysis Post Dissolution ([2]; listed as Fumarate Pattern 1): Additional peaks observed; GVS hygroscopicity ([3]; listed as Compound 9 Pattern 1): slightly hygroscopic; GVS hygroscopicity ([3]; listed as fumarate): reduced hygroscopicity |
| O=C(NCc1ncn2ccc(Cl)c(F)c12)c1cn(Cc2cn3cc(C4CC4)ccc3n2)nn1.O=C(O)C(O)C(O)C(=O)O [Compound 7] | unchanged |  | 656.4 μg/min/cm^2 | 3.4% | No observed change | unchanged by XRPD | unchanged by XRPD | IDR Sector 1 pH 2.0 ([2]; listed as L-Tartrate Pattern 1): 647.0 μg/min/cm^2 and 665.7 μg/min/cm^2; XRPD Analysis Post Dissolution [2]: poorly crystalline post analysis; GVS hygroscopicity ([3]; listed as Compound 7 Pattern 1): hygroscopic; GVS hygroscopicity ([3]; listed as L-Tartrate Pattern 1): Poorly crystalline, hygroscopic; GVS hygroscopicity ([3]; listed as L-tartrate): hygroscopic |
| CS(=O)(=O)O.O=C(NCc1ncn2ccc(Cl)c(F)c12)c1cn(Cc2cn3cc(C4CC4)ccc3n2)nn1 [Mesylate salt—Pattern 3] | unchanged |  |  |  |  |  |  |  |
| O=C(NCc1ncn2ccc(Cl)c(F)c12)c1cn(Cc2cn3cc(C4CC4)ccc3n2)nn1.O=C(O)CCC(=O)O [Compound 4] | unchanged | stable under storage | 255.5 μg/min/cm^2 | 0.16% | no observed change | unchanged by XRPD | unchanged by XRPD | IDR Sector 1 pH 2.0 ([2]; listed as Succinate Pattern 1): 270.8 μg/min/cm^2 and 240.1 μg/min/cm^2; sector 1 IDR compared to free base form Compound 1 Form 1 / other forms [2]: increased sector 1 IDR; XRPD Analysis Post Dissolution ([2]; listed as Compound 4 Pattern 1): additional peaks observed in XRPD; XRPD Analysis Post Dissolution ([2]; listed as Succinate Pattern 1): Additional peaks observed; GVS hygroscopicity ([3]; listed as Compound 4 Pattern 1): non-hygroscopic; GVS hygroscopicity ([3]; listed as succinate): reduced hygroscopicity |
